Source: patent publication US10383875B2, “Pharmaceutical formulations of xanthine or xanthine derivatives, and their use” (Imprimis Pharmaceuticals, Inc., priority 2013, dated 2019)

Experiments:
[1] = tested on: Peyronie's Disease plaques; details: oral administration; cited from earlier work
[2] = tested on: erectile dysfunction; assay: Intracavernosal injection in a patient with erectile dysfunction (Example 4); type: in vivo, human; details: person, along with phentolamine, alprostadil and papaverine
Experimental: A new injection was reformulated to contain the 3 vasoactive drugs mentioned above along with the addition of pentoxifylline, and was administered to the patient.

[3] = tested on: Peyronie's plaque; assay: Injection of pentoxifylline directly into the Peyronie's plaque of patients (Examples 5 and 6); type: in vivo, human; details: Peyronie's disease
Experimental: In Examples 5 and 6, patients suffering from Peyronie's disease were treated. A therapy cycle included injections of sterile pentoxifylline. More specifically, 6 separate injections were to be conducted over every two weeks. The dosage was 5 mg of pentoxifylline in a 1 ml volume. Single use vials were dispensed. The injections were made using a 21 gauge cannula directly into the Peyronie's plaque. A nerve block was done around the injection site to lessen the pain. Manual manipulation and traction techniques were employed to massage the area of the injection. Patients returned after two weeks for another injection and manual manipulation session.
Baseline measurements were collected before any treatment occurred to characterize the extent of the patient's disease. The degree of curvature was noted, as well as any pain/discomfort that the patient presently had and current sexual ability. Psychosocial effects related to the patient's disease were observed as well.
In Example 5, the patient suffering from Peyronie's disease was brought to the procedure room, prepared and draped in the usual sterile fashion.
A total of 1 mL of 1% lidocaine was used to perform a local block. Once the patient was anesthetized, the plaque was isolated between two fingers and 1 mL of 5 mg pentoxyfilline was injected into the plaque in a fan-like fashion. […]

[4] = tested on: symptoms of PD, such as erectile dysfunction; assay: Intracavernosal injection of a composition comprising pentoxifylline (general finding); type: in vivo
Description: This disclosure relates to the finding that local administration of a xanthine derivative, e.g., pentoxifylline, has produced unexpected improvement in treating a fibrotic disease.

CC(=O)CCCCn1c(=O)c2c(ncn2C)n(C)c1=O [pentoxifylline, 1-(5-oxohexyl)-3,7-dimethylxanthine]
improvement of Peyronie's disease [1]: moderate to minimal improvement | improvement of erectile dysfunction ([2]; pentoxifylline 6 mg dose): more remarkable | improvement of erectile dysfunction ([2]; pentoxifylline dose of 4 mg per injection): remarkable improvement | tolerability of the procedure ([3]; Example 5 patient, 1 mL of 5 mg injected into the plaque after 1% lidocaine local block): tolerated the procedure well | tolerability of the procedure ([3]; Example 6 patient, treated in the same fashion as Example 5 (5 mg in 1 ml into the plaque)): tolerated the procedure well | improvement to symptoms of PD, such as erectile dysfunction [4]: remarkable improvement | side effects [4]: fewer side effects
